From patent US4288341A, “Detergent product containing deodorant compositions” (priority 1978, dated 1981)

Target: T1, lipoxidase (EC1.13.1.13) (Glycine max, UniProt P08170)
T1 sequence (P08170 1-839): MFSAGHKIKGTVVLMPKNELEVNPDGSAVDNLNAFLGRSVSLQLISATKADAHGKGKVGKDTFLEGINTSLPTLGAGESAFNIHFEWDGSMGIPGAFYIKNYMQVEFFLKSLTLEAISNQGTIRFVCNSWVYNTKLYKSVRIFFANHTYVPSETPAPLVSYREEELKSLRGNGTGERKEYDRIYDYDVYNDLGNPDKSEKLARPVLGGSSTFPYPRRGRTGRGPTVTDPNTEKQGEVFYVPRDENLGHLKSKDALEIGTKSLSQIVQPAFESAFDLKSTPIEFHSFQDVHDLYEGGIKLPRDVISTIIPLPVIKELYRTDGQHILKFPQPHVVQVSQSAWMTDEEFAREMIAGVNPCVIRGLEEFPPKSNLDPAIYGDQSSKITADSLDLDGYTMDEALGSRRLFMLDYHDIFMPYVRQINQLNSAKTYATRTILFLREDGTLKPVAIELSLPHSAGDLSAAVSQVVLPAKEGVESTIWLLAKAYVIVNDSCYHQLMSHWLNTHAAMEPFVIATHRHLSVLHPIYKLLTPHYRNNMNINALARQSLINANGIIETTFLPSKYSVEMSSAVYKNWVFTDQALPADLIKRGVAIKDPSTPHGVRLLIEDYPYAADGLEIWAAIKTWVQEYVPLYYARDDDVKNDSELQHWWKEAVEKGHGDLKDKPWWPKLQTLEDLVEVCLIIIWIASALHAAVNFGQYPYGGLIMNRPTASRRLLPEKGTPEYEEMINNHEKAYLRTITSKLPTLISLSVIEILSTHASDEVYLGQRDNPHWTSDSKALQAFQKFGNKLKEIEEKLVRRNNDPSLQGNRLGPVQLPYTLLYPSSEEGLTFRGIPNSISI
Assay: Lipoxidase test: inhibition of the oxidation of linoleic acid by lipoxidase
Format: biochemical
Settings: test substrate made with 0.5% by weight solution of material in ethanol; borate buffer pH 9.0; OD 234 nm

Substance: Dimyrcetol
- LIC (lipoxidase-inhibiting capacity, % inhibition): 16%
